ChEMBL document CHEMBL1938296, “Steroidal C-21 heteroaryl thioethers (Part 2): discovery of orally bioavailable selective glucocorticoid receptor modulators (dissociated steroids)” (Bioorg Med Chem Lett, 2012)
pEC50, pIC50: −log10 of the molar value.

How the values were obtained:
Glucocorticoid receptor [1] = target: T1, Glucocorticoid receptor (Rattus norvegicus, UniProt P06536); test: Transactivation of glucocorticoid receptor in rat H42E cells assessed as induction of TAT measuring degradation of tyrosine to p-hydroxy phenyl pyruvate at 1 uM relative to prednisolone; type: cell-based; conditions: read-out: Efficacy
T1 sequence (P06536 whole entry): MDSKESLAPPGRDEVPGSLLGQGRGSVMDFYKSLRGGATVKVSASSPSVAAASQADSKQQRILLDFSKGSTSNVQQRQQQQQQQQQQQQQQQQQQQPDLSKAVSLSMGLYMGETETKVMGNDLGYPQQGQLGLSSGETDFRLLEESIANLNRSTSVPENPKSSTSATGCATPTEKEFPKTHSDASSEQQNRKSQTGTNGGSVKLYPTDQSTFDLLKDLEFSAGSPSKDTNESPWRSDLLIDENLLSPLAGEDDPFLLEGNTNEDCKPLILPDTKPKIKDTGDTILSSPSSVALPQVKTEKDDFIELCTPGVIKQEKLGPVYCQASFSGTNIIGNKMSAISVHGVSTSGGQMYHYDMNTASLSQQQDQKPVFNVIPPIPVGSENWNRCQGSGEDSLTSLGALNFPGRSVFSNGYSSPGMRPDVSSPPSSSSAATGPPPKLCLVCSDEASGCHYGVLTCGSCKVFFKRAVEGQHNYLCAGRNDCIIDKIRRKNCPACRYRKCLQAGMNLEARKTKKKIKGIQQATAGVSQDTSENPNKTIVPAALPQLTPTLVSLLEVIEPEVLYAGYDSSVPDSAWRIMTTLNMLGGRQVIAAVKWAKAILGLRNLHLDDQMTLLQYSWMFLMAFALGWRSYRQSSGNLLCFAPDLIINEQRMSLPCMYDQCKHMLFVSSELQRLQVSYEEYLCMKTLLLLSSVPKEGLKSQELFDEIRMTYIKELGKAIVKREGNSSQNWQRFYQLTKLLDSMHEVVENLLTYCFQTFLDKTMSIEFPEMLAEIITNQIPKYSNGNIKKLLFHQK

Glucocorticoid receptor [2] = target: T2, Glucocorticoid receptor (Homo sapiens, UniProt P04150); test: Transactivation of glucocorticoid receptor in human HepG2 cells assessed as induction of TAT measuring degradation of tyrosine to p-hydroxy phenyl pyruvate at 1 uM relative to untreated control; type: cell-based; conditions: hepg2, 1 µM
T2 sequence (P04150 whole entry): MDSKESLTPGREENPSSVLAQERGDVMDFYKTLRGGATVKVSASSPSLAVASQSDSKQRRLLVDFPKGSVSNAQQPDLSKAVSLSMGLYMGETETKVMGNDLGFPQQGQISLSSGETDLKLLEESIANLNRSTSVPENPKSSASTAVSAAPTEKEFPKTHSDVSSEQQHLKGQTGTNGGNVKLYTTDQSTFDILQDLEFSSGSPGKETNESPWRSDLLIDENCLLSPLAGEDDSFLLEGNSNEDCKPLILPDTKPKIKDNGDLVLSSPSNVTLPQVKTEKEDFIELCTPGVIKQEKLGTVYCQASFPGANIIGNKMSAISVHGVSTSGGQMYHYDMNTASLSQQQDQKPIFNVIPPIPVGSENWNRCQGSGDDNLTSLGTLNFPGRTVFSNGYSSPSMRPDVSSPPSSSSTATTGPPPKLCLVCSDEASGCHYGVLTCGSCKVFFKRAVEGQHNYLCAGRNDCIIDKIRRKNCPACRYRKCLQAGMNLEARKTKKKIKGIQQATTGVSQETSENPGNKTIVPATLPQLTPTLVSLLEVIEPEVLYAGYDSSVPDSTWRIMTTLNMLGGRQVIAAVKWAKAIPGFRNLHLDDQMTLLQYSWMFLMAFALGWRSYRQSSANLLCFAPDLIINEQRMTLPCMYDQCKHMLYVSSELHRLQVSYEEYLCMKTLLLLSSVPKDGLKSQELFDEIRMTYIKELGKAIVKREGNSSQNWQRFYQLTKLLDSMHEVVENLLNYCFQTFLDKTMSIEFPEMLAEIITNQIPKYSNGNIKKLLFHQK

Glucocorticoid receptor [3] = target: T2, Glucocorticoid receptor; test: Transrepression activity at glucocorticoid receptor in human H292 cells assessed as inhibition of TNF-stimulated IL-8 production; type: cell-based
Glucocorticoid receptor [4] = target: T2, Glucocorticoid receptor; test: Transactivation of glucocorticoid receptor in human HepG2 cells assessed as induction of TAT measuring degradation of tyrosine to p-hydroxy phenyl pyruvate; type: cell-based; conditions: read-out: IC50 (the source's name)
Glucocorticoid receptor [5] = target: T1, Glucocorticoid receptor; test: Transactivation of glucocorticoid receptor in rat H42E cells assessed as induction of TAT measuring degradation of tyrosine to p-hydroxy phenyl pyruvate; type: cell-based; conditions: read-out: IC50 (the source's name)
Rattus norvegicus [6] = test: Antiinflammatory activity against Brown Norway rat allergic lung inflammation model assessed as total cell inhibition at 10 mg/kg, po for 3 days; type: functional; set-up: scale not given: the % may be the effect or the level left
[7] = AUC in Brown Norway rat at 10 mg/kg, po; type: ADME, organism-based; set-up: dose 10 mg/kg, route oral; conditions: plasma
Rattus norvegicus [8] = test: Toxicity in Brown Norway rat allergic lung inflammation model assessed as decrease in thymus weight at 10 mg/kg, po for 3 days; type: organism-based; set-up: dose 10 mg/kg, route oral; scale not given: the % may be the effect or the level left; conditions: in vivo, 72 h

Row | Structure (SMILES) | Emax at 1 µM (Glucocorticoid receptor [1]) | Efficacy (Glucocorticoid receptor [2]) | pIC50 (Glucocorticoid receptor [3]) | pEC50 (Glucocorticoid receptor [4]) | pEC50 (Glucocorticoid receptor [5]) | Activity (Rattus norvegicus [6]) | AUC [7] | Activity (Rattus norvegicus [8])
1 | C[C@@H]1C[C@H]2[C@@H]3CCC4=CC(=O)C=C[C@]4(C)[C@H]3[C@@H](O)C[C@]2(C)[C@@]1(O)C(=O)CSc1nc2ccccc2n1C | 2% | 13% | 7.16 | – | – | – | – | –
2 | C[C@@H]1C[C@H]2[C@@H]3CCC4=CC(=O)C=C[C@]4(C)[C@H]3[C@@H](O)C[C@]2(C)[C@@]1(O)C(=O)CSc1nc2ccccc2s1 | 35% | 62% | 8.24 | 6.00 | 6.64 | – | – | –
3 | CCn1c(SCC(=O)[C@@]2(O)CC[C@H]3[C@@H]4CCC5=CC(=O)C=C[C@]5(C)[C@H]4[C@@H](O)C[C@@]32C)nc2ccccc21 | 10% | 9% | 7.38 | – | – | – | – | –
4 | C[C@@H]1C[C@H]2[C@@H]3CCC4=CC(=O)C=C[C@]4(C)[C@H]3[C@@H](O)C[C@]2(C)[C@@]1(O)C(=O)CSc1ncnc2ccccc12 | 8% | 30% | 7.63 | – | – | – | – | –
5 | C[C@@H]1C[C@H]2[C@@H]3CCC4=CC(=O)C=C[C@]4(C)[C@H]3[C@@H](O)C[C@]2(C)[C@@]1(O)C(=O)CSc1nccc2ccccc12 | 6% | 8% | 7.75 | – | – | – | – | –
6 | C[C@]12C=CC(=O)C=C1CC[C@@H]1[C@@H]2[C@@H](O)C[C@@]2(C)[C@H]1CC[C@]2(O)C(=O)CSc1nc2ncccc2[nH]1 | 2% | 7% | 7.24 | – | – | – | – | –
7 | C[C@]12C=CC(=O)C=C1CC[C@@H]1[C@@H]2[C@@H](O)C[C@@]2(C)[C@H]1CC[C@]2(O)C(=O)CSc1nc(-c2ccccc2)cs1 | 9% | 42% | 6.52 | – | – | – | – | –
8 | C[C@]12C=CC(=O)C=C1CC[C@@H]1[C@@H]2[C@@H](O)C[C@@]2(C)[C@H]1CC[C@]2(O)C(=O)CSc1ccccn1 | 23% | 22% | 7.36 | 6.62 | 6.15 | – | – | –
9 | C[C@@H]1C[C@H]2[C@@H]3CCC4=CC(=O)C=C[C@]4(C)[C@H]3[C@@H](O)C[C@]2(C)[C@@]1(O)C(=O)CSc1ccc2ccccc2n1 | 45% | 19% | 7.33 | – | 7.72 | 73% | 5280 ng·h/mL | 66%
10 | Cc1cccc(SCC(=O)[C@@]2(O)[C@H](C)C[C@H]3[C@@H]4CCC5=CC(=O)C=C[C@]5(C)[C@H]4[C@@H](O)C[C@@]32C)n1 | 29% | 33% | 8.77 | – | – | – | – | –
11 | C[C@@H]1C[C@H]2[C@@H]3CCC4=CC(=O)C=C[C@]4(C)[C@H]3[C@@H](O)C[C@]2(C)[C@@]1(O)C(=O)CO | – | 125% | 8.80 | 7.80 | – | – | – | –
12 | C[C@]12C=CC(=O)C=C1CC[C@@H]1[C@@H]2[C@@H](O)C[C@@]2(C)[C@H]1CC[C@]2(O)C(=O)CSc1nc2cccnc2s1 | 7% | 6% | 6.93 | – | – | – | – | –
13 | C[C@@H]1C[C@H]2[C@@H]3CCC4=CC(=O)C=C[C@]4(C)[C@H]3[C@@H](O)C[C@]2(C)[C@@]1(O)C(=O)CSc1nc2ccccc2[nH]1 | 3% | 30% | 7.44 | – | – | – | – | –
14 | C[C@]12C=CC(=O)C=C1CC[C@@H]1[C@@H]2[C@@H](O)C[C@@]2(C)[C@H]1CC[C@]2(O)C(=O)CSc1nc2ccccc2o1 | 32% | 22% | 7.87 | – | – | – | 26 ng·h/mL | –
15 | C[C@@H]1C[C@H]2[C@@H]3CCC4=CC(=O)C=C[C@]4(C)[C@H]3[C@@H](O)C[C@]2(C)[C@@]1(O)C(=O)CSc1nnc(-c2ccccc2)o1 | 65% | 57% | 8.29 | 7.10 | 6.13 | – | – | –
16 | Cc1ccnc(SCC(=O)[C@@]2(O)CC[C@H]3[C@@H]4CCC5=CC(=O)C=C[C@]5(C)[C@H]4[C@@H](O)C[C@@]32C)n1 | 6% | 6% | 7.94 | – | – | – | – | –
17 | C[C@@H]1C[C@H]2[C@@H]3CCC4=CC(=O)C=C[C@]4(C)[C@H]3[C@@H](O)C[C@]2(C)[C@@]1(O)C(=O)CSc1cnc2ccccc2n1 | 3% | 54% | 7.42 | – | – | 85% | 1950 ng·h/mL | 65%
18 | C[C@]12C=CC(=O)C=C1CC[C@@H]1[C@@H]2[C@@H](O)C[C@@]2(C)[C@H]1CC[C@]2(O)C(=O)CSc1nc2ncccc2o1 | 29% | 21% | 7.76 | – | – | 56% | 2940 ng·h/mL | 9%
19 | C[C@@H]1C[C@H]2[C@@H]3CCC4=CC(=O)C=C[C@]4(C)[C@H]3[C@@H](O)C[C@]2(C)[C@@]1(O)C(=O)CSc1nc2ncccc2o1 | 37% | 32% | 8.22 | – | 6.87 | – | – | –
20 | C[C@]12C=CC(=O)C=C1CC[C@@H]1[C@@H]2[C@@H](O)C[C@@]2(C)[C@H]1CC[C@]2(O)C(=O)CSc1ncc2ccccc2n1 | 2% | 10% | 7.16 | – | – | 46% | 606 ng·h/mL | 11%
21 | C[C@]12C=CC(=O)C=C1CC[C@@H]1[C@@H]2[C@@H](O)C[C@@]2(C)[C@H]1CC[C@]2(O)C(=O)CSc1nc2ccccc2s1 | 19% | – | – | – | – | 45% | 1220 ng·h/mL | 15%
22 | C[C@@H]1C[C@H]2[C@@H]3CCC4=CC(=O)C=C[C@]4(C)[C@H]3[C@@H](O)C[C@]2(C)[C@@]1(O)C(=O)CSc1nc2ccccc2o1 | – | – | 8.36 | – | – | – | – | –
